In general, IC50 refers to the concentration that inhibits the measured activity by half. As a reminder, the inhibition is the drop in the measured response relative to a control, in per cent. A low value points to little suppression.

SMILES strings stand for the structures.

We go through eight compounds from patent US12454530B2, “Amido cyclohexane acid derivatives as LPA receptor inhibitors” (CHIESI FARMACEUTICI S.P.A., priority 2020, dated 2025).

In series [1] the target is human recombinant LPA1 expressed in CHO cells (Homo sapiens (Human), UniProt Q92633). Briefly: LPA1 antagonist FLIPR calcium assay in CHO-hLPA1 cells. The format is cell-based. Conditions: range of activity; CHO-hLPA1, LPA EC80, Ca2+ mobilization; read-out: LPA1 IC50. In short, it runs like this:
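CHO cells expressing human LPA1 loaded with Cal-520 AM (5 μM, with 2.5 mM probenecid) 30 min at 37 °C. Baseline-subtracted peak fluorescence on FLIPR converted to % inhibition; pIC50 from four-parameter logistic fit.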
For orientation: Calcium assays in cells follow changes in intracellular calcium, usually with a dye or a luminescent sensor.

Another series addresses BSEP (Homo sapiens (Human), UniProt O95342). Briefly: BSEP inhibition: biliary clearance of Taurocolic Acid in sandwich-cultured human hepatocytes. Conditions: sandwich-cultured cryopreserved human hepatocytes, probe Taurocolic Acid (TCA); 50 μM test compound, 10 μM TCA, human hepatocytes sandwich configuration. Format: in vitro ADME. In short, it runs like this:
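Cryopreserved human hepatocytes were sandwich-cultured between collagen layers for 5 days, then incubated for 10 min at 37 °C in HBSS+ with 10 μM taurocholic acid, with or without 50 μM test compound. Bile content was released with Ca2+/Mg2+-free HBSS and quantified by HPLC-MS/MS. Inhibition is the percent reduction in TCA biliary clearance.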

Series [2] in a line: Permeability on Caco-2 cells monolayers. Format: in vitro ADME. Conditions: human, with Elacridar 10 µM (PgP inhibitor), Papp A>B with PgP inhibitor Elacridar, 10 μM compound, read-out: Passive Permeability. Here is the method:
Even more advantageously, the compounds of formula (I) of the present invention are also endowed with a good permeability profile that, in its turn, can ensure a suitable bioavailability for an oral administration. The permeability was assessed in human Caco 2 cell line, an in vitro model that mimic human gastrointestinal barrier and so useful to predic oral absorption.
The permeability of the compounds of the present invention was evaluated performing the assay on Caco-2 cells monolayers (human colon adenocarcinoma immortalized cell) by measuring the transport of compound (absorption and secretion) in both directions: apical to basolateral direction (A>B) and basolateral to apical (B>A) with and without PgP inhibitor (Elacridar).
The cells, purched from ReadyCell in 96 well format (Cod. KRECE-CCR50), were cultured by the supplier for 21 day on transwell supports in DMEM 1 g/L glucose culture medium supplemented with Fetal Bovin Sierum (10%), Glutamine 200 mM (1%) and Penicillin 10000 U/ml-10 mg/ml Streptomycin (1%).
On day 21 of colture, cell monolayers integrity was verified by measuring the trans-epithelial electric resistance (TEER) using the EVOM equipment (Endohm, WPI, Germany) and studying the apparent permeability (Papp) of reference compounds (Sulpiride and Metoprolol). Furthermore, as a control, the Talinolol 10 uM (Pgp efflux substrate) with and without Elacridar in both directions was used.
The sample solution was prepared dissolving test compound in DMSO at the concentration of 10 mM and then diluted in the Assay Buffer (Hank's Balance Salt Solution) warmed at 37° C. before use, to give the 10 μM Compound working solution with and without 10 μM Elacridar. These working solutions were added to donor compartment (apical for A>B direction and basolateral for B>A direction) and Assay Buffer (Hank's Balance Salt Solution) to the receiver compartment (basolateral for A>B direction and apical for B>A direction). The plate was incubated at 37° C. for 120 min, all incubation were conducted in triplicates. At the end of incubation, samples from donor and receiver compartments were collected for HPLC-MS/MS analyses.
The permeability coefficients (Papp) in both directions: apical to basolateral (A>B) and basolateral to apical (B>A) with and without PgP inhibitor (Elacridar) was calculated in nm/sec, using the following equation:
[formula] • where: • Cr=measured concentration in the receiver well at the time t (expressed as IS ratio) • Vr=volume of the receiver well (ml) • t=time (sec) • A=membrane surface area (cm^2) • C0=initial donor concentration • Passive Papp is considered Papp A>B with PgP inhibitor Elacridar.
A general note: Caco-2 cells form a polarised layer with tight junctions and transporters.

BSEP, sequence (O95342 whole entry): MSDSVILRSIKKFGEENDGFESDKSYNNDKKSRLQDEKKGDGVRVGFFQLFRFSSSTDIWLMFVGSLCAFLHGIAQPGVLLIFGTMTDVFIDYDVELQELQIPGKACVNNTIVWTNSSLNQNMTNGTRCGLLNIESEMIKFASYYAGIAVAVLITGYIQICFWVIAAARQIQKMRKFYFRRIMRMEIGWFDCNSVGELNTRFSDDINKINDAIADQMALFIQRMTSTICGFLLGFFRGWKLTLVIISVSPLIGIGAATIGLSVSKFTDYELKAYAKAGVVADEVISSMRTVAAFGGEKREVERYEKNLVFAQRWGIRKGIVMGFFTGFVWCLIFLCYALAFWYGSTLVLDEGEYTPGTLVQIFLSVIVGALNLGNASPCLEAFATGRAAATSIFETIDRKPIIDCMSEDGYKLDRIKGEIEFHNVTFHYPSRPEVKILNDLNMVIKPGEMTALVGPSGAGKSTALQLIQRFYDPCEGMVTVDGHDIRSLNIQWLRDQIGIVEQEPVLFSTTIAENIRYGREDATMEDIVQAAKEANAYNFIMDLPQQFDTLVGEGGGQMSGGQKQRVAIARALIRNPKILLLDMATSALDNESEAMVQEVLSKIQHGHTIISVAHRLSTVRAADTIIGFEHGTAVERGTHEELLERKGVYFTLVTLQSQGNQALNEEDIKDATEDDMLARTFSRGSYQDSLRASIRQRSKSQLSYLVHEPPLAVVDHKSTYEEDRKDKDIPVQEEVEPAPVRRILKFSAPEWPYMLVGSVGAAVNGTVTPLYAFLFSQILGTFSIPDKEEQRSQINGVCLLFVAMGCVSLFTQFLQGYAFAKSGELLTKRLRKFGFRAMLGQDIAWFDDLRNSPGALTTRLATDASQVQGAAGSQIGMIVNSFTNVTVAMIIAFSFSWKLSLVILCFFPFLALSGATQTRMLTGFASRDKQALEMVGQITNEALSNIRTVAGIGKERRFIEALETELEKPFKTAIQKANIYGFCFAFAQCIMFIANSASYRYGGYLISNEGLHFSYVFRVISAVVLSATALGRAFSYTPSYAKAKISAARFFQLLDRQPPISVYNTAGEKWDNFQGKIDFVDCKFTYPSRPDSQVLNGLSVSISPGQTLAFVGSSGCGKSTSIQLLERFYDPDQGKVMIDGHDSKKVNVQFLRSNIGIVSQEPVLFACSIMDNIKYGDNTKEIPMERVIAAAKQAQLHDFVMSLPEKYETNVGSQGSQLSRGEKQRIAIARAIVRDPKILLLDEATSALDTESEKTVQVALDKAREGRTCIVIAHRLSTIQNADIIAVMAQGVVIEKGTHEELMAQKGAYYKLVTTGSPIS
human recombinant LPA1 expressed in CHO cells, sequence (Q92633 whole entry): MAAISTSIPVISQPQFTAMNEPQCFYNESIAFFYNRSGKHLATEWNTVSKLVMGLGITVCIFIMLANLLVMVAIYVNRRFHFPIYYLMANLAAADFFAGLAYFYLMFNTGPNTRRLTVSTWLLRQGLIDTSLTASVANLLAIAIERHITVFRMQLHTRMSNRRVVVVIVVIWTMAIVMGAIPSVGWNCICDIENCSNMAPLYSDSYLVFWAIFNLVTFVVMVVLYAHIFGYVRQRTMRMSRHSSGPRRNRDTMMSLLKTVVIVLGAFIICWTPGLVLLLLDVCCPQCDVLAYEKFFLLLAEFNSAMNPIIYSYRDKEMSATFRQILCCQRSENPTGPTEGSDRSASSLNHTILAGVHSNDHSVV

Regarding `COc1ccccc1[C@@H](C)OC(=O)Nc1c(C)noc1-c1ccc(NC(=O)[C@H]2CCCC[C@@H]2C(=O)O)c(C)n1` [Example 38, (1S,2S)-2-((6-(4-((((R)-1-(2-methoxyphenyl)ethoxy)carbonyl)amino)-3-methylisoxazol-5-yl)-2-methylpyridin-3-yl)carbamoyl)cyclohexane-1-carboxylic acid], the IC50 in series [1] was in the range of 50 to 250 nM. Moreover, at BSEP, the inhibition at 10 min, 50 μM is no more than 50%. The Papp at 120 min, 10 µM in series [2] was no less than 1.5 ×10⁻⁶ cm/s.

For `Cc1nc(-c2onc(C)c2NC(=O)O[C@H](C)c2ccccc2C(F)(F)F)ccc1NC(=O)[C@H]1CCCC[C@@H]1C(=O)O` [Example 25, (1S,2S)-2-((2-methyl-6-(3-methyl-4-((((R)-1-(2-(trifluoromethyl)phenyl)ethoxy)carbonyl)amino)isoxazol-5-yl)pyridin-3-yl)carbamoy1)cyclohexane-1-carboxylic acid], the IC50 in series [1] is 50 to 250 nM. Moreover, the inhibition at 10 min, 50 μM on BSEP was no more than 50%. In addition, in series [2], the Papp at 120 min, 10 µM was no less than 1.5 ×10⁻⁶ cm/s.

For `Cc1noc(-c2ccc(NC(=O)[C@H]3CCCC[C@@H]3C(=O)O)cn2)c1NC(=O)O[C@H](C)c1ccccc1F` [Example 34, (1S,2S)-2-((6-(4-((((R)-1-(2-fluorophenyl)ethoxy)carbonyl)amino)-3-methylisoxazol-5-yl)pyridin-3-yl)carbamoyl)cyclohexane-1-carboxylic acid], the IC50 in series [1] was less than 50 nM. On BSEP, the inhibition at 10 min, 50 μM was no more than 50%. The Papp at 120 min, 10 µM in series [2] is no less than 1.5 ×10⁻⁶ cm/s.

Take `Cc1noc(-c2ccc(NC(=O)C3CCCCC3C(=O)O)cn2)c1NC(=O)O[C@H](C)c1ccccc1` (stereo in doubt) [Example 40, Cis-2-((6-(3-methyl-4-((((R)-1-phenylethoxy)carbonyl)amino)isoxazol-5-y1)pyridin-3-yl)carbamoyl)cyclohexane-1-carboxylic acid]: in series [1], the IC50 was 50 to 250 nM. The inhibition at 10 min, 50 μM at BSEP is no more than 50%. For the same compound, in series [2], the Papp at 120 min, 10 µM is no less than 1.5 ×10⁻⁶ cm/s.

As for `C[C@@H](OC(=O)Nc1ccsc1-c1ccc(NC(=O)C2CCCCC2C(=O)O)cc1)c1ccccc1Cl` (single isomer, unassigned) [Example 7], the IC50 in series [1] was less than 50 nM. On BSEP, this compound came in with an inhibition at 10 min, 50 μM of no more than 50%. For the same compound, the Papp at 120 min, 10 µM in series [2] is no less than 1.5 ×10⁻⁶ cm/s.

On to `Cc1noc(-c2ccc(NC(=O)[C@H]3CCCC[C@@H]3C(=O)O)cn2)c1NC(=O)O[C@H](C)c1ccccc1C(F)(F)F` [Example 36, (1S,2S)-2-((6-(3-methyl-4-((((R)-1-(2-(trifluoromethyl)phenyl)ethoxy)carbonyl)amino)isoxazol-5-yl)pyridin-3-yl)carbamoyl)cyclohexane-1-carboxylic acid], for which, in series [1], the IC50 is 50 to 250 nM. Also, the inhibition at 10 min, 50 μM against BSEP is no more than 50%. In addition, the Papp at 120 min, 10 µM in series [2] is no less than 1.5 ×10⁻⁶ cm/s.

`Cc1nc(-c2nnn(C)c2NC(=O)O[C@H](C)C2CCCC2)ccc1NC(=O)[C@H]1CCCC[C@@H]1C(=O)O` [Example 46, (1S,2S)-2-((6-(5-((((R)-1-cyclopentylethoxy)carbonyl)amino)-1-methyl-1H-1,2,3-triazol-4-yl)-2-methylpyridin-3-yl)carbamoyl)cyclohexane-1-carboxylic acid]: in series [1], the IC50 is 50 to 250 nM. The same compound registered an inhibition at 10 min, 50 μM on BSEP of no more than 50%. In addition, the Papp at 120 min, 10 µM in series [2] was no less than 1.5 ×10⁻⁶ cm/s.

For `Cc1noc(-c2ccc(NC(=O)[C@H]3CCCC[C@@H]3C(=O)O)cn2)c1NC(=O)OCc1ccccc1Cl` [Example 35, (1S,2S)-2-((6-(4-((((2-chlorobenzyl)oxy)carbonyl)amino)-3-methylisoxazol-5-yl)pyridin-3-yl)carbamoyl)cyclohexane-1-carboxylic acid], the IC50 in series [1] lay within 50 to 250 nM. Moreover, the inhibition at 10 min, 50 μM against BSEP is no more than 50%. Also, the Papp at 120 min, 10 µM in series [2] was no less than 1.5 ×10⁻⁶ cm/s.
